Measured values taken from ChEMBL document CHEMBL1201862, “PubChem BioAssay data set” (2004).
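Step 1: Grow cells in 96-well plates. Step 2: Expose to compound for 48 hours at 5 concentrations. Step 3: Interpolate endpoints linearly; if unreached, use highest concentration. GI50 is the concentration that inhibits growth by half.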 Active and inactive are the calls of the source. Cut-off read from the data, not from the text of the source: active = GI50 up to about 1.1 µM and inactive = higher.

Assays:
Test in all cases: DTP human tumour cell line panel, 48 h
A549 = test system: A549
HCT-116 = test system: HCT-116
HOP-62 = test system: HOP-62
IGROV-1 = test system: IGROV-1
M14 = test system: M14
MOLT-4 = test system: MOLT-4
NCI-H23 = test system: NCI-H23
NCI-H460 = test system: NCI-H460
NCI-H522 = test system: NCI-H522
OVCAR-4 = test system: OVCAR-4
OVCAR-8 = test system: OVCAR-8
SF-268 = test system: SF-268
SF-295 = test system: SF-295
SK-MEL-5 = test system: SK-MEL-5
SK-OV-3 = test system: SK-OV-3
SN12C = test system: SN12C
SNB-75 = test system: SNB-75
SW-620 = test system: SW-620
U-251 = test system: U-251
ACHN = test system: ACHN

Structure (SMILES) | GI50 (A549) | GI50 (HCT-116) | GI50 (HOP-62) | GI50 (IGROV-1) | GI50 (M14) | GI50 (MOLT-4) | GI50 (NCI-H23) | GI50 (NCI-H460) | GI50 (NCI-H522) | GI50 (OVCAR-4) | GI50 (OVCAR-8) | GI50 (SF-268) | GI50 (SF-295) | GI50 (SK-MEL-5) | GI50 (SK-OV-3) | GI50 (SN12C) | GI50 (SNB-75) | GI50 (SW-620) | GI50 (U-251) | GI50 (ACHN)
O=C(O)/C(=C\c1ccncc1)c1cccc2ccccc12 | 90.6 µM (inactive) | > 100 µM (inactive) | > 100 µM (inactive) | > 100 µM (inactive) | > 100 µM (inactive) | > 100 µM (inactive) | > 100 µM (inactive) | > 100 µM (inactive) | > 100 µM (inactive) | > 100 µM (inactive) | > 100 µM (inactive) | > 100 µM (inactive) | > 100 µM (inactive) | > 100 µM (inactive) | > 100 µM (inactive) | 44.1 µM (inactive) | > 100 µM (inactive) | > 100 µM (inactive) | > 100 µM (inactive) | 
CN(C)/N=N/c1ccc([N+](=O)[O-])cc1C(N)=O | > 100 µM (inactive) | > 100 µM (inactive) | > 90.4 µM (inactive) | > 100 µM (inactive) |  | > 79.6 µM (inactive) | > 100 µM (inactive) | > 100 µM (inactive) | > 92.7 µM (inactive) | > 100 µM (inactive) | > 100 µM (inactive) | > 100 µM (inactive) | > 100 µM (inactive) | > 100 µM (inactive) | > 100 µM (inactive) | > 100 µM (inactive) | > 100 µM (inactive) | > 100 µM (inactive) | > 100 µM (inactive) | 
Cc1cc2oc3c(ccc(=O)n3C)c(=O)c2c(C)c1Cl | 45 µM (inactive) | 34.9 µM (inactive) | 49.7 µM (inactive) | 32.1 µM (inactive) | 28.5 µM (inactive) |  | 44.6 µM (inactive) | 61 µM (inactive) | 62.7 µM (inactive) | > 100 µM (inactive) | 76.2 µM (inactive) | 55.5 µM (inactive) | 54.8 µM (inactive) | 29 µM (inactive) | 75.5 µM (inactive) | 48.6 µM (inactive) | > 100 µM (inactive) | 82.6 µM (inactive) | 38.2 µM (inactive) | 57.4 µM (inactive)
Cc1nc2[nH]ncn2c(=O)c1CCO | > 10 µM (inactive) | > 10 µM (inactive) | > 10 µM (inactive) | > 10 µM (inactive) | > 10 µM (inactive) | > 10 µM (inactive) | > 10 µM (inactive) | > 10 µM (inactive) | > 10 µM (inactive) | > 10 µM (inactive) | > 10 µM (inactive) | > 10 µM (inactive) |  | > 10 µM (inactive) | > 10 µM (inactive) | > 10 µM (inactive) | > 10 µM (inactive) | > 10 µM (inactive) | > 10 µM (inactive) | > 10 µM (inactive)
O=C(Nc1cccc(C(=O)NCCCO)c1)/C(=C/c1ccccc1)NC(=O)c1ccccc1 | > 100 µM (inactive) | > 100 µM (inactive) | > 100 µM (inactive) | > 100 µM (inactive) | > 100 µM (inactive) | 84.1 µM (inactive) | > 100 µM (inactive) | > 100 µM (inactive) | > 100 µM (inactive) | > 100 µM (inactive) | > 100 µM (inactive) | > 100 µM (inactive) | > 100 µM (inactive) | > 100 µM (inactive) | > 100 µM (inactive) | > 100 µM (inactive) | > 100 µM (inactive) | > 100 µM (inactive) | > 100 µM (inactive) | > 100 µM (inactive)
C/C(=N/NS(=O)(=O)c1ccc([N+](=O)[O-])cc1)c1cccc[n+]1[O-] | > 100 µM (inactive) | > 100 µM (inactive) | > 100 µM (inactive) | > 100 µM (inactive) | > 100 µM (inactive) | > 100 µM (inactive) | > 100 µM (inactive) | > 100 µM (inactive) | > 100 µM (inactive) | > 100 µM (inactive) | > 100 µM (inactive) | > 100 µM (inactive) | > 100 µM (inactive) | > 100 µM (inactive) | > 100 µM (inactive) | > 100 µM (inactive) | > 100 µM (inactive) | > 100 µM (inactive) | > 100 µM (inactive) | > 100 µM (inactive)
CCOC(=O)/C(=C/c1cn(C(C)=O)c2ccccc12)P(=O)(OC)OC | 33.2 µM (inactive) | 30.8 µM (inactive) | 63.4 µM (inactive) | 25.6 µM (inactive) | 52.4 µM (inactive) | 25.4 µM (inactive) | 33.8 µM (inactive) | 24.4 µM (inactive) | 30.5 µM (inactive) | 33.4 µM (inactive) | 46.7 µM (inactive) |  | 44.4 µM (inactive) | 23.1 µM (inactive) | 25.1 µM (inactive) | 31.6 µM (inactive) | 16 µM (inactive) | 41.8 µM (inactive) | 30.4 µM (inactive) | 31.4 µM (inactive)
CCCCCCCCCCCC1=NCCN1 | 90.6 µM (inactive) | 56.6 µM (inactive) |  |  | > 100 µM (inactive) | 17.9 µM (inactive) | 93.8 µM (inactive) | 30.1 µM (inactive) | 26.5 µM (inactive) | 14.8 µM (inactive) | > 100 µM (inactive) | > 100 µM (inactive) | 87.7 µM (inactive) | 38.6 µM (inactive) | > 100 µM (inactive) | 77.6 µM (inactive) | 32 µM (inactive) | 34.7 µM (inactive) | 49.9 µM (inactive) | > 100 µM (inactive)
CCP(=O)(CC)C(Cl)(Cl)C(O)C(C)(C)C (configuration not stated) | > 100 µM (inactive) | > 100 µM (inactive) | > 100 µM (inactive) | > 100 µM (inactive) | > 100 µM (inactive) | > 100 µM (inactive) | > 100 µM (inactive) | > 100 µM (inactive) | > 100 µM (inactive) | > 100 µM (inactive) | > 100 µM (inactive) |  | > 100 µM (inactive) | > 100 µM (inactive) | > 100 µM (inactive) | > 100 µM (inactive) | > 100 µM (inactive) | > 100 µM (inactive) | > 100 µM (inactive) | > 100 µM (inactive)
Brc1cccc(Nc2ncnc3sc4c(c23)CCC(Nc2cccc(Br)c2)C4)c1 (configuration not stated) | > 100 µM (inactive) | > 100 µM (inactive) | > 100 µM (inactive) | 71.3 µM (inactive) | > 100 µM (inactive) | > 100 µM (inactive) | > 100 µM (inactive) | > 100 µM (inactive) | > 100 µM (inactive) | > 100 µM (inactive) | > 100 µM (inactive) | > 100 µM (inactive) | > 100 µM (inactive) | > 100 µM (inactive) | > 100 µM (inactive) | > 100 µM (inactive) | 65.9 µM (inactive) | > 100 µM (inactive) | > 100 µM (inactive) | > 100 µM (inactive)
CCOc1c(/N=N/c2ccccc2Cl)c(-c2ccccc2)nn1C(=S)S | 33.2 µM (inactive) | 28 µM (inactive) | > 100 µM (inactive) | 42.6 µM (inactive) | 47.9 µM (inactive) | 23.9 µM (inactive) | 30.3 µM (inactive) | 45.2 µM (inactive) | 25.2 µM (inactive) | 48.4 µM (inactive) | 54 µM (inactive) | > 100 µM (inactive) | 33.6 µM (inactive) | 21.2 µM (inactive) | > 100 µM (inactive) | 9.06 µM (inactive) | > 100 µM (inactive) | 46.6 µM (inactive) | 51.1 µM (inactive) | 48.1 µM (inactive)
OCc1cn(C(c2ccccc2)(c2ccccc2)c2ccccc2)cn1 | > 100 µM (inactive) | > 100 µM (inactive) | 44.5 µM (inactive) | > 100 µM (inactive) | > 100 µM (inactive) | > 100 µM (inactive) | > 100 µM (inactive) | > 100 µM (inactive) | > 100 µM (inactive) | > 100 µM (inactive) | > 100 µM (inactive) |  | 32.3 µM (inactive) | > 100 µM (inactive) | 66.4 µM (inactive) | > 100 µM (inactive) | 22.2 µM (inactive) | > 100 µM (inactive) | 50.9 µM (inactive) | 72.4 µM (inactive)
Nc1ncc2c(n1)-c1ccccc1OC2N1CCCC1 (configuration not stated) | > 100 µM (inactive) | > 100 µM (inactive) | > 100 µM (inactive) | 80.7 µM (inactive) | > 100 µM (inactive) | > 100 µM (inactive) | > 100 µM (inactive) | > 100 µM (inactive) | > 100 µM (inactive) | > 100 µM (inactive) | > 100 µM (inactive) | > 100 µM (inactive) | > 100 µM (inactive) | > 100 µM (inactive) | > 100 µM (inactive) | > 100 µM (inactive) | 29 µM (inactive) | > 100 µM (inactive) | > 100 µM (inactive) | > 100 µM (inactive)
COc1cccc(/C=C/C(=O)N2CC(CCl)c3c2cc(N)c2ccccc32)c1 (configuration not stated) | 0.00153 µM (active) | 0.00109 µM (active) | < 0.01 µM (active) |  | 0.00957 µM (active) | 0.0194 µM (active) | 0.00065 µM (active) | 0.000115 µM (active) | 0.00045 µM (active) | 0.00344 µM (active) | 0.00109 µM (active) | 0.000693 µM (active) | 0.00114 µM (active) | < 0.01 µM (active) | 0.00371 µM (active) | 0.00357 µM (active) | 0.00237 µM (active) | 0.00194 µM (active) | 0.000344 µM (active) | 0.000264 µM (active)
C=C1C(=O)O[C@@H]2[C@H]3O[C@]3(C)CCC=C(C)CC[C@@H]12 | 94.6 µM (inactive) | 10.3 µM (inactive) | 49.1 µM (inactive) | 21.1 µM (inactive) |  | 14.2 µM (inactive) | 20.2 µM (inactive) | 18.8 µM (inactive) | 5.47 µM (inactive) | 21.6 µM (inactive) | 16.7 µM (inactive) | 23.7 µM (inactive) | 24.8 µM (inactive) | 17.5 µM (inactive) | 54.7 µM (inactive) | 22.9 µM (inactive) | 48.4 µM (inactive) | 14.8 µM (inactive) | 41.6 µM (inactive) | 
